The source of these data is US9505769B2 (ASCENEURON SA, priority 2013, dated 2016).

The EC50 is the concentration giving half of the maximal effect.

The target of this assay is T1, human muscarinic acetylcholine M1 receptor (Homo sapiens, UniProt P11229).
T1 construct: expressed in transfected cells; host or cells: CHO-K1
T1 sequence (P11229 1-460): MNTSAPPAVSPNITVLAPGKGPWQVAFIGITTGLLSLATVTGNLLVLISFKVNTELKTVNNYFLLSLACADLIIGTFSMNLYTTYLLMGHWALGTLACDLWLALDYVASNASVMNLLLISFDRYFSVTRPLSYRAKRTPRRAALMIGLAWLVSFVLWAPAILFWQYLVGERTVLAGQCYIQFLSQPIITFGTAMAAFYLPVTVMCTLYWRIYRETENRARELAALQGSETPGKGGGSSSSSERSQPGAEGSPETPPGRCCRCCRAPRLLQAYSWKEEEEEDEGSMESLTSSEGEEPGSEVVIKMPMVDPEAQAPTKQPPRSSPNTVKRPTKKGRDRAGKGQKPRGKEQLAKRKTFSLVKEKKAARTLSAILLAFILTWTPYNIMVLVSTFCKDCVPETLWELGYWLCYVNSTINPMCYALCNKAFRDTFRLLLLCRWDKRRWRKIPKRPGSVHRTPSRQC
Briefly: M1 PAM Assay (IP-One HTRF, IP1 accumulation in M1-CHO cells). The class given is cell-based. To be noted: CHO-K1 cells stably transfected with human M1 receptor; compounds added with EC20 of acetylcholine (25 nM), 30 min; intracellular IP1 by IP-One HTRF; read-out: M1 PAM EC50. Here is the method:
Then diluted compounds (0.6% DMSO final concentration) are added together with EC20 of acetylcholine and incubated with the cells for 30 min at 37° C., 5% CO2.
CHO-K1 cells stably transfected with human muscarinic acetylcholine M1 receptor are cultured in Ham's F12 medium containing 10% heat inactivated fetal calf serum, 2 mM L-glutamine and Penicillin-Streptomycin grown in a humidified atmosphere at 5% CO2/95% air at 37° C.
For orientation: Time-resolved FRET reads energy transfer from a long-lived donor to a nearby acceptor.

Turning to `CCN1CCC(Oc2cc(F)ccc2C(=O)N2Cc3nn4c(C)c(Cl)c(C)nc4c3C2)CC1` [Example 76, (6-Chloro-5,7-dimethyl-1H,3H-2,4,7a,8-tetraaza-cyclopenta[a]inden-2-yl)-[2-(1-ethyl-piperidin-4-yloxy)-4-fluoro-phenyl]-methanone], the concentration for a half-maximal effect (EC50) is < 200 nM.
`CCCN1CCC(Oc2cc(F)ccc2C(=O)N2Cc3nn4c(C)c(Cl)c(C)nc4c3C2)CC1` [Example 77, (6-Chloro-5,7-dimethyl-1H,3H-2,4,7a,8-tetraaza-cyclopenta[a]inden-2-yl)-[4-fluoro-2-(1-propyl-piperidin-4-yloxy)-phenyl]-methanone]: the concentration giving a half-maximal response (EC50) was < 200 nM.
For “(3-chloro-4-ethyl-2-methyl-7H-pyrrolo[3′,4′:3,4]pyrazolo[1,5-a]pyrimidin-8(9H)-yl)(2-((4-hydroxytetrahydrofuran-3-yl)oxy)phenyl)methanone or (3-chloro-2-ethyl-4-methyl-7H-pyrrolo[3′,4′:3,4]pyrazolo[1,5-a]pyrimidin-8(9H)-yl)(2-((4-hydroxytetrahydrofuran-3-yl)oxy)phenyl)methanone [Example 22]” the value was 1000 to 3000 nM; for “(anti)-(6-Chloro-5-ethyl-7-methyl-1H,3H-2,4,7a,8-tetraaza-cyclopenta[a]inden-2-yl)-[2-(4-hydroxy-pyrrolidin-3-yl oxy)-phenyl]-methanone or (anti)-(6-Chloro-5-methyl-7-ethyl-1H,3H-2,4,7a,8-tetraaza-cyclopenta[a]inden-2-yl)-[2-(4-hydroxy-pyrrolidin-3-yl oxy)-phenyl]-methanone [Example 10]”, 200 to 1000 nM; for “(syn)-(6-Chloro-5,7-dimethyl-1H,3H-2,4,7a,8-tetraaza-cyclopenta[a]inden-2-yl)-[4-fluoro-2-(4-fluoro-cyclohexyloxy)-phenyl]-methanone or (anti)-(6-Chloro-5,7-dimethyl-1H,3H-2,4,7a,8-tetraaza-cyclopenta[a]inden-2-yl)-[4-fluoro-2-(4-fluoro-cyclohexyloxy)-phenyl]-methanone [Example 54]”, 1000 to 3000 nM.
